Like-named read-outs stand apart in the source and are kept apart here. Blank lines part the entries; values can stand above or below the compound they belong to.
Key:
[1] = DIO mice, 30 mg/kg daily
Mouse Fast PK/BBB [2] = format: in vivo, Male C57bl/6j mice; conditions: oral; for concentration at 4 hr / concentration at 1 hr: male, C57bl/6j
Procedure: Male C57bl/6j mice were ordered from Charles River at 22-25 g and housed 3 per cage. They were fed standard chow (Purina 5001).
Male C57bl/6j mice were dosed with test compounds at 20 mg/kg or 30 mg/kg. Plasma was collected via retro-orbital bleeding at 1 hr and 4 hrs after dosing. Whole brain without cerebellum was collected at 4 hrs after dosing. Wet brain weight was recorded before freezing. Brains were homogenized in saline and sent for analysis for determination of concentration of test compound.

[3] = target: Human CB1R (Cannabanoid receptor 1) (Homo sapiens (Human), UniProt P21554); experiment: CB-1 in vitro cAMP (HTRF) assay in HEK-293 cells; format: cell-based; conditions: HEK-293 cells stably transfected with human CB1R, 250 nM Forskolin, mean where tested more than once, read-out: CB-1 (HEK_cAMP) EC50
In short: (§1)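 HEK-293 cells stably expressing human CB1 or CB2 plated overnight, then tested in HBSS/5 mM HEPES/0.1% BSA with 0.5 mM IBMX and forskolin (1.5 μM working dilution). Intracellular cAMP quantified by competitive HTRF immunoassay (d2-cAMP, cryptate anti-cAMP) against a cAMP standard curve; compounds as 1/3 serial dilutions from 10 mM DMSO stocks.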

[4] = target: Human CB2R (Cannabanoid receptor 2) (Homo sapiens (Human), UniProt P34972); experiment: CB-2 in vitro cAMP (HTRF) assay in HEK-293 cells; format: cell-based; conditions: HEK-293 cells stably transfected with human CB2R, 250 nM Forskolin, mean where tested more than once, read-out: CB-2 (HEK_cAMP) EC50
In short: as §1

Mouse Fast PK/BBB [5] = format: in vivo, Male C57bl/6j mice; conditions: male, C57bl/6j, brain, oral, Dose 30 mg/kg, read-out: BRAIN Mean Conc. (ng/mL) ± Std. Dev
[6] = brain, Dose 30 mg/kg, Time 4 hr, read-out: BRAIN Mean Conc. (ng/mL) ± Std. Dev
[7] = plasma, Dose 30 mg/kg, Time 1 hr, read-out: PLASMA Mean Conc. (ng/mL) ± Std. Dev
[8] = plasma, Dose 30 mg/kg, Time 4 hr, read-out: PLASMA Mean Conc. (ng/mL) ± Std. Dev

Chain of Human CB2R (Cannabanoid receptor 2) (P34972 whole entry): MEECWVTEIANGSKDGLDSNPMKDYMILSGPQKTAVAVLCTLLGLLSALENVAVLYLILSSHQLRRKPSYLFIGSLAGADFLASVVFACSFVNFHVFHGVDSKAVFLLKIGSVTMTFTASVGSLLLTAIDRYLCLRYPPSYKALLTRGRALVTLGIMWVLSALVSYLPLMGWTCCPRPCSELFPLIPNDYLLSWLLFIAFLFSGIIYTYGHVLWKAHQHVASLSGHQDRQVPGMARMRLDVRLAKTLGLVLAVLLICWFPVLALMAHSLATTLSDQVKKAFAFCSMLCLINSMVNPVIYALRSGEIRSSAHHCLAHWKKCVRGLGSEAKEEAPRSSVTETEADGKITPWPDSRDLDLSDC
Chain of Human CB1R (Cannabanoid receptor 1) (P21554 whole entry): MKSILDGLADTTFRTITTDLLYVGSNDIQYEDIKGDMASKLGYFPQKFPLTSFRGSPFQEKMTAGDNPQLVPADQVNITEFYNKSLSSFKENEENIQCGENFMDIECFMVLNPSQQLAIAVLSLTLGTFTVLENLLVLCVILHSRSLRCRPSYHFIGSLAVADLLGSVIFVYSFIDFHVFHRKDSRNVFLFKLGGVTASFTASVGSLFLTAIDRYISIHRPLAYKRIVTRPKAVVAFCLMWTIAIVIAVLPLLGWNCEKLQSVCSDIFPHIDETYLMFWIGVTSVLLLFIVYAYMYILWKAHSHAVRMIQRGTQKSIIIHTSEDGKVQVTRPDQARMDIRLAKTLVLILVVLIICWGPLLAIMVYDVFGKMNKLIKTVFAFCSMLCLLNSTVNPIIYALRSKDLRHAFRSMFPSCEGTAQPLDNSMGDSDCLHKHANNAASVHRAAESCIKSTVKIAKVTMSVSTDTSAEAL

- concentration at 1 hr (Mouse Fast PK/BBB [5]): 29.4 ± 3.9 ng/mL
- EC50 [4]: > 10 µM
- concentration at 4 hr (Mouse Fast PK/BBB [2]; [6]): 54.8 ± 14.5 ng/mL
- concentration at 1 hr (Mouse Fast PK/BBB [2]; [7]): 2460 ± 427 ng/mL
- concentration at 4 hr (Mouse Fast PK/BBB [2]; [8]): 2310 ± 554 ng/mL
- EC50 [3]: 17 nM
SMILES: NC(=O)c1cc(S(=O)(=O)N2CCC(c3c4cc(C(c5ccc(Cl)cc5)c5ccc(Cl)cc5)ccc4nn3C3CC3)CC2)ccc1Cl [Compound 169, 5-(4-(5-(bis(4-chlorophenyl)methyl)-2-cyclopropyl-2H-indazol-3-yl)piperidin-1-ylsulfonyl)-2-chlorobenzamide]

- EC50 [4]: > 10 µM
- BRAIN Mean Conc. (ng/mL) ± Std. Dev (ng/mL) (Mouse Fast PK/BBB [2]; Dose 30 mg/kg, Time 1 hr): BLOQ ± NA
- PLASMA Mean Conc. (ng/mL) ± Std. Dev (Mouse Fast PK/BBB [2]; Dose 30 mg/kg, Time 1 hr): 1763 ± 474 ng/mL
- BRAIN Mean Conc. (ng/mL) ± Std. Dev (ng/mL) (Mouse Fast PK/BBB [2]; Dose 30 mg/kg, Time 4 hr): BLOQ ± NA
- PLASMA Mean Conc. (ng/mL) ± Std. Dev (Mouse Fast PK/BBB [2]; Dose 30 mg/kg, Time 4 hr): 196 ± 88.0 ng/mL
- EC50 [3]: 26 nM
SMILES: O=C(O)c1ccc([C@@H](c2ccc(Cl)cc2)c2ccc3[nH]nc(C4CCN(S(=O)(=O)C(F)(F)F)CC4)c3c2)cc1 [Compound 232]

- EC50 [4]: > 10 µM
- BRAIN Mean Conc. (ng/mL) ± Std. Dev (Mouse Fast PK/BBB [2]; Dose 30 mg/kg, Time 1 hr): 11.2 ± 3.95 ng/mL
- PLASMA Mean Conc. (ng/mL) ± Std. Dev (Mouse Fast PK/BBB [2]; Dose 30 mg/kg, Time 1 hr): 8693 ± 499 ng/mL
- BRAIN Mean Conc. (ng/mL) ± Std. Dev (Mouse Fast PK/BBB [2]; Dose 30 mg/kg, Time 4 hr): 8.31 ± 2.31 ng/mL
- PLASMA Mean Conc. (ng/mL) ± Std. Dev (Mouse Fast PK/BBB [2]; Dose 30 mg/kg, Time 4 hr): 979 ± 376 ng/mL
- EC50 [3]: 16 nM
SMILES: O=C(O)c1ccc([C@@H](c2ccc(Cl)cc2)c2ccc3[nH]nc(N4CCN(S(=O)(=O)C(F)(F)F)CC4)c3c2)cc1 [Compound 234]

- EC50 [4]: > 10 µM
- EC50 [3]: 24 nM
SMILES: O=S(=O)(N1CCC(c2nn(C3CC3)c3ccc(C(c4ccc(Cl)cc4)c4ccc(Cl)cc4)cc23)CC1)C(F)(F)F [Compound 275]

- EC50 [4]: > 42 µM
- EC50 [3]: 785 nM
SMILES: O=S(=O)(N1CCC(c2n[nH]c3ccc(C(c4ccc(Cl)cc4)C4CCCC4)cc23)CC1)C(F)(F)F (stereo not shown) [Compound 279]

- EC50 [4]: > 42 µM
- EC50 [3]: 565 nM
SMILES: O=S(=O)(N1CCC(c2n[nH]c3ccc(C(c4ccc(Cl)cc4)C4CCCCC4)cc23)CC1)C(F)(F)F (stereo not shown) [Compound 280]

The next lines start with the compound.

SMILES: O=S(=O)(N1CCC(c2n[nH]c3ccc(C(c4ccc(Cl)cc4)c4ccc(Cl)cc4)cc23)CC1)C(F)(F)F [Compound 17, 5-(bis(4-chlorophenyl)methyl)-3-(1-(trifluoromethylsulfonyl)piperidin-4-yl)-1H-indazole]
- Fed Blood Glucose (Std Err) ([1]; Day 0): 174 (9) mg/dL
- Mean Body Weight (in Grams (Std Err)) ([1]; Day 0): 42.3 (1.0) Grams
- Mean Body Weight (in Grams (Std Err)) ([1]; Day 1): 40.2 (1.1) Grams
- Mean Daily Food Intake (in Grams (Std Err)) ([1]; Day 1): 0.8 (0.3) Grams
- Mean Body Weight (in Grams (Std Err)) ([1]; Day 2): 38.3 (1.0) Grams
- Mean Daily Food Intake (in Grams (Std Err)) ([1]; Day 2): 0.3 (0.1) Grams
- Mean Body Weight (in Grams (Std Err)) ([1]; Day 3): 37.2 (1.1) Grams
- Mean Daily Food Intake (in Grams (Std Err)) ([1]; Day 3): 0.5 (0.1) Grams
- Fed Blood Glucose (Std Err) ([1]; Day 4): 150 (7) mg/dL
- Mean Body Weight (in Grams (Std Err)) ([1]; Day 4): 36.3 (1.0) Grams
- Mean Daily Food Intake (in Grams (Std Err)) ([1]; Day 4): 0.8 (0.1) Grams
- Plasma Insulin (Std Err) ([1]; day 5, 2 hours after dose): 1.24 (0.28) ng/mL
- BRAIN Mean Conc. (ng/mL) ± Std. Dev (Mouse Fast PK/BBB [2]; Dose 20 mg/kg, Time 1 hr): 51.8 ± 16.6 ng/mL
- PLASMA Mean Conc. (ng/mL) ± Std. Dev (Mouse Fast PK/BBB [2]; Dose 20 mg/kg, Time 1 hr): 4478.2 ± 1576.9 ng/mL
- BRAIN Mean Conc. (ng/mL) ± Std. Dev (Mouse Fast PK/BBB [2]; Dose 20 mg/kg, Time 4 hr): 103.2 ± 10.8 ng/mL
- PLASMA Mean Conc. (ng/mL) ± Std. Dev (Mouse Fast PK/BBB [2]; Dose 20 mg/kg, Time 4 hr): 3444.4 ± 1058.9 ng/mL
- EC50 [3]: 6 nM

SMILES: O=S(=O)(N1CCC(c2n[nH]c3ccc(C(c4ccc(Cl)cc4)c4ccc(Cl)cc4)cc23)CC1)C(F)(F)F [Compound 35]
- EC50 [4]: > 10 µM
- BRAIN Mean Conc. (ng/mL) ± Std. Dev (ng/mL) (Mouse Fast PK/BBB [2]; Dose 20 mg/kg, Time 1 hr): BLOQ ± NA
- PLASMA Mean Conc. (ng/mL) ± Std. Dev (Mouse Fast PK/BBB [2]; Dose 20 mg/kg, Time 1 hr): 3613 ± 253 ng/mL
- BRAIN Mean Conc. (ng/mL) ± Std. Dev (ng/mL) (Mouse Fast PK/BBB [2]; Dose 20 mg/kg, Time 4 hr): BLOQ ± NA
- PLASMA Mean Conc. (ng/mL) ± Std. Dev (Mouse Fast PK/BBB [2]; Dose 20 mg/kg, Time 4 hr): 611 ± 125 ng/mL
- EC50 [3]: 5 nM

SMILES: O=S(=O)(c1cccc(O)c1)N1CCC(c2c3cc(C(c4ccc(Cl)cc4)c4ccc(Cl)cc4)ccc3nn2C2CC2)CC1 [Compound 151, 3-(4-(5-(bis(4-chlorophenyl)methyl)-2-cyclopropyl-2H-indazol-3-yl)piperidin-1-ylsulfonyl)phenol]
- concentration at 1 hr (Mouse Fast PK/BBB [5]): 41.8 ± 15.7 ng/mL
- EC50 [4]: > 10 µM
- concentration at 4 hr (Mouse Fast PK/BBB [2]; [6]): 31.4 ± 13.4 ng/mL
- concentration at 1 hr (Mouse Fast PK/BBB [2]; [7]): 2740 ± 160 ng/mL
- concentration at 4 hr (Mouse Fast PK/BBB [2]; [8]): 884 ± 584 ng/mL
- EC50 [3]: 6 nM

SMILES: COc1cc(S(=O)(=O)N2CCC(c3c4cc(C(c5ccc(Cl)cc5)c5ccc(Cl)cc5)ccc4nn3C3CC3)CC2)ccc1C(=O)O [Compound 157, 4-(4-(5-(bis(4-chlorophenyl)methyl)-2-cyclopropyl-2H-indazol-3-yl)piperidin-1-ylsulfonyl)-2-methoxybenzoic acid]
- EC50 [4]: 4.03 µM
- concentration at 1 hr (Mouse Fast PK/BBB [2]; [7]): 241 ± 117 ng/mL
- concentration at 4 hr (Mouse Fast PK/BBB [2]; [8]): 13 ± 1.7 ng/mL
- BRAIN Mean Conc. (ng/mL) ± Std. Dev (ng/mL) (Mouse Fast PK/BBB [2]; Dose 30 mg/kg, Time 1 hr): BLOQ ± NA
- BRAIN Mean Conc. (ng/mL) ± Std. Dev (ng/mL) (Mouse Fast PK/BBB [2]; Dose 30 mg/kg, Time 4 hr): BLOQ ± NA
- EC50 [3]: 2 nM

SMILES: NC(=O)c1cccc(CN2CCC(c3nn(C4CC4)c4ccc(C(c5ccc(Cl)cc5)c5ccc(Cl)cc5)cc34)CC2)c1 [Compound 206]
- EC50 [4]: > 10 µM
- BRAIN Mean Conc. (ng/mL) ± Std. Dev (Mouse Fast PK/BBB [2]; Dose 30 mg/kg, Time 1 hr): 21.5 ng/mL
- PLASMA Mean Conc. (ng/mL) ± Std. Dev (Mouse Fast PK/BBB [2]; Dose 30 mg/kg, Time 1 hr): 333.5 ± 70.5 ng/mL
- BRAIN Mean Conc. (ng/mL) ± Std. Dev (Mouse Fast PK/BBB [2]; Dose 30 mg/kg, Time 4 hr): 30.6 ± 6.5 ng/mL
- PLASMA Mean Conc. (ng/mL) ± Std. Dev (Mouse Fast PK/BBB [2]; Dose 30 mg/kg, Time 4 hr): 532.8 ± 58.9 ng/mL
- EC50 [3]: 8 nM

SMILES: O=C(O)c1cccc(CN2CCC(c3nn(C4CC4)c4ccc(C(c5ccc(Cl)cc5)c5ccc(Cl)cc5)cc34)CC2)c1 [Compound 207]
- EC50 [4]: 9.7 µM
- BRAIN Mean Conc. (ng/mL) ± Std. Dev (Mouse Fast PK/BBB [2]; Dose 30 mg/kg, Time 1 hr): 516 ± 44.2 ng/mL
- PLASMA Mean Conc. (ng/mL) ± Std. Dev (Mouse Fast PK/BBB [2]; Dose 30 mg/kg, Time 1 hr): 7373 ± 867 ng/mL
- BRAIN Mean Conc. (ng/mL) ± Std. Dev (Mouse Fast PK/BBB [2]; Dose 30 mg/kg, Time 4 hr): 1180 ± 115 ng/mL
- PLASMA Mean Conc. (ng/mL) ± Std. Dev (Mouse Fast PK/BBB [2]; Dose 30 mg/kg, Time 4 hr): 4317 ± 856 ng/mL
- EC50 [3]: 9 nM

SMILES: CC(c1cccc(C(=O)O)c1)N1CCC(c2n[nH]c3ccc(C(c4ccc(Cl)cc4)c4ccc(Cl)cc4)cc23)C1 (stereo not shown) [Compound 277]
- EC50 [4]: 7 µM
- EC50 [3]: 1550 nM

Source: patent US9682940B2, “Indazole derivatives useful as CB-1 inverse agonists” (Janssen Pharmaceutica NV, priority 2015, dated 2017)
